According to article PMC10132538, “Regulation of the two-pore domain potassium channel, THIK-1 and THIK-2, by G protein coupled receptors” (PLOS ONE, 2023):
Read-outs that look alike come from different tables or passages of the source.

Experiments:
[1] = biological target: T1, M1R-YFP / ΔN-THIK-2 channel (Homo sapiens, UniProt P11229); test: M1R-YFP-induced increase of ΔN-THIK-2 channel current in CHO-K1 cells; type: cell-based, mouse; conditions: oxo-M 10 μM
T1 construct: expressed in transfected cells; host or cells: CHO-K1
T1 sequence (P11229 1-460): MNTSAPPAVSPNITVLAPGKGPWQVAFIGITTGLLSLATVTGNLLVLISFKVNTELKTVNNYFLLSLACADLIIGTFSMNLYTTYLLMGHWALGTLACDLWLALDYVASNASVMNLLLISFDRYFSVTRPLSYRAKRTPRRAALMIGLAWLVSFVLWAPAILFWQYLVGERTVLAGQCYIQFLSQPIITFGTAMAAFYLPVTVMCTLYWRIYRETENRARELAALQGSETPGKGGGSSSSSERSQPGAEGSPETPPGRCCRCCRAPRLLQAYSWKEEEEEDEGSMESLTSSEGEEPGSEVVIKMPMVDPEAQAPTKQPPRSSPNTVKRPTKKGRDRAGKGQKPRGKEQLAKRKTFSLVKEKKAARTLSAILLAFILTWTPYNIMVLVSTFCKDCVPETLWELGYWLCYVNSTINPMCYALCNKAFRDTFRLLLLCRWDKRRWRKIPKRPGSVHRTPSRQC
From the text: (§1) Coding region of mGu2 (M1-P840) was amplified by conventional PCR with designed primers and the resulting product was subcloned into pEYFP-N1 vector at the BglII and EcoRI sites. The cDNAs for mouse THIK-2 channel and dimeric THIK channels were subcloned into pcDNA3.1(-) vector. To increase the surface membrane expression of the THIK-2 channel, 29 residues (Ser2-Ser30) were removed (ΔN-THIK-2). […] Ci-VSP-IRES-GFP vector was kindly gifted by Dr. Y. Okamura (Osaka University, Osaka, Japan). HEK293T cells or CHO-K1 cells were seeded on glasses and transfected with the plasmid DNAs for THIK channels, receptors and a transfection marker of yellow fluorescent protein (YFP). Electrophysiological experiments were performed 24–72 h after the transfection. […] Pertussis toxin (PTX) was purchased from Wako (Osaka, Japan). […] All reagents were dissolved at high concentration and stored at -20 °C as the stock solutions. The stock reagent solution was diluted at concentrations for the electrophysiological experiments. PTX was solved in the culture medium (final concentration, 300 ng/mL) and cells were incubated in it for more than 16 h. U73122 or U73343 (final concentration, 2 μM each) was dissolved in Hanks’ Balanced Salt Solution (HBSS, Invitrogen, Carlsbad, CA, USA) supplemented with 1 mM Ca^2+ and 0.3 mM Mg^2+. […]

[2] = tested on: THIK-1 channel; test: Basal current (I0) density of THIK-1 channel at 0 mV in HEK293T cells; type: cell-based; conditions: for Basal current (I0) density of THIK-1 channel: 0 mV, before agonist; for Basal current I0: THIK-1 & M1R
From the text: (§2) Coding region of mGu2 (M1-P840) was amplified by conventional PCR with designed primers and the resulting product was subcloned into pEYFP-N1 vector at the BglII and EcoRI sites. The cDNAs for mouse THIK-2 channel and dimeric THIK channels were subcloned into pcDNA3.1(-) vector. To increase the surface membrane expression of the THIK-2 channel, 29 residues (Ser2-Ser30) were removed (ΔN-THIK-2). […] Ci-VSP-IRES-GFP vector was kindly gifted by Dr. Y. Okamura (Osaka University, Osaka, Japan). HEK293T cells or CHO-K1 cells were seeded on glasses and transfected with the plasmid DNAs for THIK channels, receptors and a transfection marker of yellow fluorescent protein (YFP). Electrophysiological experiments were performed 24–72 h after the transfection. […] Pertussis toxin (PTX) was purchased from Wako (Osaka, Japan). […] All reagents were dissolved at high concentration and stored at -20 °C as the stock solutions. The stock reagent solution was diluted at concentrations for the electrophysiological experiments. PTX was solved in the culture medium (final concentration, 300 ng/mL) and cells were incubated in it for more than 16 h. U73122 or U73343 (final concentration, 2 μM each) was dissolved in Hanks’ Balanced Salt Solution (HBSS, Invitrogen, Carlsbad, CA, USA) supplemented with 1 mM Ca^2+ and 0.3 mM Mg^2+. Cells were incubated in HBSS with U73122 or U73343 for 10 min at room temperature before the whole cell current recording.
(§3) Composition of bath solution was (in mM) 140 NaCl, 4 KCl, 1 CaCl2, 0.3 MgCl2, 10 HEPES (pH 7.4 adjusted with NaOH). The pipette solution for whole cell patch clamp experiments contained (mM) 130 KCl, 5 Na2-ATP, 3 EGTA, 0.1 CaCl2, 10 HEPES, 4 MgCl2, (pH 7.3 adjusted with KOH). GTP (0.3 mM) was supplemented in the pipette solution. Once the whole cell configuration was established, the cell was held at -80mV and ramp pulses (-120mV to +40mV for 0.4 sec) were applied every 5 sec. Various concentrations of the agonists were applied using a fast perfusion system (VC77SP, Warner Instruments, Hamden, CT, USA). The PKC inhibitor chelerythrine was included in the pipette solution.
(§4) The amplitude of the THIK-1 channel current at 0 mV was measured from every trace induced by the ramp pulse protocol to minimize the fraction of non-selective cationic leak current. The current amplitude before the agonist application was set as the basal current amplitude (I0). The effects of GPCRs on the THIK-1 channel were evaluated as the ratio of the current amplitude after the agonist application to I0 (Iagonist/I0). The EC50 values were estimated by fitting the concentration response curve to a Hill equation (Origin2016; OriginLab, Northampton, MA, USA). […] The effects of A2aR on the Gi/o-R-induced current increase of the THIK-1 channel was estimated as follows. […] All data are shown as means and S.D. The statistical significance between two or more than two groups was estimated by unpaired Student’s t-test or by a one-way analysis of variance (ANOVA) followed by Tukey’s test, respectively. […] Values of p≤ 0.05 were considered as statistically significant (***:p≤0.001, **:0.001<p≤0.01, *:0.01<p≤0.05, n.s.:p>0.05).

[3] = biological target: T2, M1R (Homo sapiens, UniProt P11229); test: M1R-induced increase of THIK-1 channel current, whole cell patch clamp in HEK293T cells; type: cell-based; conditions: for Ioxo/I0: oxo-M 10 μM
T2 construct: expressed in transfected cells; host or cells: HEK293T
T2 sequence (P11229 1-460): T1 sequence (P11229 1-460)
From the text: as §2, §3, §4

[4] = biological target: T3, M2R (Homo sapiens, UniProt P08172); test: M2R-induced increase of THIK-1 channel current, whole cell patch clamp in HEK293T cells; type: cell-based
T3 construct: expressed in transfected cells; host or cells: HEK293T
T3 sequence (P08172 1-466): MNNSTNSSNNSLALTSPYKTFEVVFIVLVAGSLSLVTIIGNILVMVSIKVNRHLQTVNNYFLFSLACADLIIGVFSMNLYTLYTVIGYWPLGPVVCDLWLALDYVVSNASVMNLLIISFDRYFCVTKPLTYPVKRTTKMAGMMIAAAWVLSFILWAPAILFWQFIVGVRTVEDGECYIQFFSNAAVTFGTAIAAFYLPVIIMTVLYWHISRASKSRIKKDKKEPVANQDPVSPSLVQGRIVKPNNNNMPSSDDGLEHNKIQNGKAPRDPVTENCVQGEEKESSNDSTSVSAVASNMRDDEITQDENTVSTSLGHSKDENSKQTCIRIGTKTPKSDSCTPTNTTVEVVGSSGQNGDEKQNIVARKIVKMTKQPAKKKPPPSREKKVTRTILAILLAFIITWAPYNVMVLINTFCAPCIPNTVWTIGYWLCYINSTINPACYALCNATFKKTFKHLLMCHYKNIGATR
From the text: as §1, with “experiments.” for “experiments. PTX was solved in the culture medium (final concentration, 300 ng/mL) and cells were incubated in it for more than 16 h. U73122 or U73343 (final concentration, 2 μM each) was dissolved in Hanks’ Balanced Salt Solution (HBSS, Invitrogen, Carlsbad, CA, USA) supplemented with 1 mM Ca^2+ and 0.3 mM Mg^2+.”
(§5) The amplitude of the THIK-1 channel current at 0 mV was measured from every trace induced by the ramp pulse protocol to minimize the fraction of non-selective cationic leak current. […] The effects of GPCRs on the THIK-1 channel were evaluated as the ratio of the current amplitude after the agonist application to I0 (Iagonist/I0). […]

[5] = tested on: endogenously expressed channels in HEK293T cells; test: Effect of receptor stimulation on the endogenous current in HEK293T cells without THIK-1; type: cell-based; conditions: no THIK-1
From the text: The amplitude of the current increase at the 15th trace (ΔI15th) after the application of GABA or oxo-M were normalized to that at the 5th traces (ΔI5th) with or without additional activation of A2aR (ΔI15th/ΔI5th).
The current density at 0 mV (I0) in HEK293T cell transfected with indicated receptors and the effects of the receptor stimulation are shown as Mean and S.D.

[6] = biological target: T4, M3R (Homo sapiens, UniProt P20309); test: M3R-induced increase of THIK-1 channel current, whole cell patch clamp in HEK293T cells; type: cell-based
T4 construct: expressed in transfected cells; host or cells: HEK293T
From the text: as §1, with “experiments.” for “experiments. PTX was solved in the culture medium (final concentration, 300 ng/mL) and cells were incubated in it for more than 16 h. U73122 or U73343 (final concentration, 2 μM each) was dissolved in Hanks’ Balanced Salt Solution (HBSS, Invitrogen, Carlsbad, CA, USA) supplemented with 1 mM Ca^2+ and 0.3 mM Mg^2+.”
as §5

[7] = tested on: THIK-1 channel; set-up: method as in PMID 24081450; conditions: cited from earlier work
[8] = tested on: THIK-1 channel; set-up: method as in PMID 34928298; conditions: cited from earlier work
[9] = chelerythrine 3 μM in pipette solution
[10] = chelerythrine 10 μM in pipette solution
[11] = chelerythrine 30 μM in pipette solution
[12] = concentration response of THIK-1 current increase
[13] = concentration response of THIK-1 current increase (Iagonist/I0), Hill fit

T4 sequence (P20309 whole entry): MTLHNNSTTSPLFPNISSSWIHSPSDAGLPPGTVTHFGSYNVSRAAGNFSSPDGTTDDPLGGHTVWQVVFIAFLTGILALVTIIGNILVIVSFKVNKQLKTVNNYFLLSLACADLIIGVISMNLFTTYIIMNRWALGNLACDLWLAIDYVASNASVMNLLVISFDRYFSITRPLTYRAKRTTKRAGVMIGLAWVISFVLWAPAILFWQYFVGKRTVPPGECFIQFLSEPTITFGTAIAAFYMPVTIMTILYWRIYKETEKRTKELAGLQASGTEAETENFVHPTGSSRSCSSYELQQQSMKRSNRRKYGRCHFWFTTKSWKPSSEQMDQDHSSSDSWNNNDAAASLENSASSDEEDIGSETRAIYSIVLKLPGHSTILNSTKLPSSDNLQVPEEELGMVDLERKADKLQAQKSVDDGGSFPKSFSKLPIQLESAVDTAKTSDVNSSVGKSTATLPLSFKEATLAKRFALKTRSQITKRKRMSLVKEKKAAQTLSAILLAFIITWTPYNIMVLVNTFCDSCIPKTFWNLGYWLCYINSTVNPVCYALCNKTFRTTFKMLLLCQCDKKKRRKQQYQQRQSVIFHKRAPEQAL

Question: With COc1ccc2c(c1)CC[C@@H]1[C@@H]2CC[C@]2(C)[C@@H](NCCCCCCN3C(=O)CCC3=O)CC[C@@H]12 [U73343] as the compound, how does the “effect of M1R-YFP on ΔN-THIK-2 channel after PLC reagent” value [1] read?
Answer: The value was “not”.

Question: What about the “Basal current (I0) density of THIK-1 channel” value (from here on “Basal current (I0) density”) ([2]; THIK-1 + M1R, PLC reagent 2 μM 10 min) of the same compound?
Answer: Its value is 46.5 ± 22.3 (10)^n.s pA/pF.

Question: What about the “Basal current (I0) density” value ([2]; THIK-1 + M3R, PLC reagent 2 μM 10 min) of the same compound?
Answer: The value was 113.3 ± 122.1 (7)^n.s pA/pF.

Question: What about the “Basal current (I0) density” value ([2]; THIK-1 + mGlu1, PLC reagent 2 μM 10 min) of the same compound?
Answer: Its value is 121.0 ± 104.7 (12)^n.s pA/pF.

Question: For COc1ccc2c(c[n+](C)c3c4cc5c(cc4ccc23)OCO5)c1OC [chelerythrine, Chelerythrine], which “effect of PKC inhibitor on the effect of M1R” value ([3]; 3–30 μM in the pipette solution) is on record?
Answer: Its value is “did not inhibit the effect of M1R”.

Question: What about the Ioxo/I0 [3, 9] of the same compound?
Answer: Its Ioxo/I0 is 4.4 ± 2.4 ^n.s.

Question: And the Ioxo/I0 [3, 10]?
Answer: The Ioxo/I0 was 2.2 ± 0.6 ^n.s.

Question: And the Ioxo/I0 [3, 11]?
Answer: The Ioxo/I0 was 2.7 ± 1.0 ^n.s.

Question: What about the “Basal current I0” value [2, 9] of the same compound?
Answer: Its value is 43.1 ± 46.8 ^n.s. pA/pF.

Question: What about the “Basal current I0” value [2, 10] of the same compound?
Answer: The value was 56.4 ± 46.7 ^n.s. pA/pF.

Question: What about the “Basal current I0” value [2, 11] of the same compound?
Answer: The value was 22.8 ± 15.5 ^n.s. pA/pF.

Question: With C[N+](C)(C)CC#CCN1CCCC1=O [oxo-M, oxotremorine-M] as the compound, how does the “n; Hill coefficient” value [4, 12] read?
Answer: The value was 1.54 ± 0.37.

Question: And the EC50 [4, 13]?
Answer: Its EC50 is 62700 ± 35800 nM.

Question: And the “Effect of agonist (Iagonist/I0)” value ([5]; HEK293T transfected with M1R)?
Answer: The value was 0.95 ± 0.15.

Question: And the “Effect of agonist (Iagonist/I0)” value ([5]; HEK293T transfected with M2R)?
Answer: The value was 0.97 ± 0.12.

Question: And the “Effect of agonist (Iagonist/I0)” value ([5]; HEK293T transfected with M3R)?
Answer: The value was 1.01 ± 0.13.

Question: And the EC50 ([3]; concentration response of THIK-1 current increase (Iagonist/I0), Hill fit, HEK293T)?
Answer: Its EC50 is 270 ± 160 nM.

Question: And the “n; Hill coefficient” value ([3]; concentration response of THIK-1 current increase, HEK293T)?
Answer: Its value is 1.14 ± 0.22.

Question: What about the Ioxo/I0 ([3]; chelerythrine 0 μM (control of Table 3)) of the same compound?
Answer: The Ioxo/I0 was 2.8 ± 1.1.

Question: And the “n; Hill coefficient” value [6, 12]?
Answer: Its value is 1.07 ± 0.43.

Question: What about the EC50 [6, 13] of the same compound?
Answer: Its EC50 is 400 ± 310 nM.

Question: For CCCCCCCCCCCCCC(=O)O[C@@H]1[C@@H](C)[C@@]2(O)[C@@H](C=C(CO)C[C@]3(O)C(=O)C(C)=C[C@@H]23)[C@@H]2C(C)(C)[C@]12OC(C)=O [phorbol myristate acetate], which “activation of the THIK-1 channel” value [7] is on record?
Answer: The value was “did not activate”.

Question: For “phosphatidyl inositol bisphosphate [PIP2]”, which “activation of the THIK-1 channel” value [8] is on record?
Answer: The value was “directly activate”.
